According to patent US7662842B2, “Thiazolidinone amides, thiazolidine carboxylic acid amides, and serine amides, including polyamine conjugates thereof, as selective anti-cancer agents” (Ohio State Univesity Research Foundation, priority 2003, dated 2010):

Experiments:
Format in all cases: cell-based
[1] = test system: RH7777 rat hepatoma cells; assay: SRB cytotoxicity assay, RH7777 control cell line; conditions: SRB assay, 96 h exposure; control cell line
Description: (§1) For in vitro cytotoxicity screening, 1000 to 5000 cells were plated into each well of 96-well plates depending on growth rate, and exposed to different concentrations of a test compound for 96 h in three to five replicates. All the compounds were dissolved in dimethyl sulfoxide at 5 to 20 mM, and diluted to desired concentrations in complete culture medium. Cell numbers at the end of the drug treatment were measured by the SRB assay (Gududuru et al., “Synthesis and Biological Evaluation of Novel Cytotoxic Phospholipids for Prostate Cancer,” Bioorg. Med. Chem. Lett. 14:4919-4923 (2004); Rubinstein et al., “Comparison of in vitro Anticancer-Drug-Screening Data Generated with a Tetrazolium Assay Versus a Protein Assay Against a Diverse Panel of Human Tumor Cell Lines,” J. Natl. Cancer Inst. 82:1113-1118 (1990), each of which is hereby incorporated by reference in its entirety). Briefly, the cells were fixed with 10% of trichloroacetic acid, stained with 0.4% SRB, and the absorbances at 540 nm was measured using a plate reader (DYNEX Technologies, Chantilly, Va.). […] A sandwich ELISA (Roche, Mannheim, Germany) utilizing monoclonal antibodies specific for DNA and histones was used to quantify degree of apoptosis induced by the analogs after 72 h exposure. This assay measures DNA-histone complexes (mono- and oligonucleosomes) released into cytoplasm from the nucleus during apoptosis.

[2] = test system: DU-145 human prostate cancer cells; assay: SRB cytotoxicity assay, DU-145; conditions: read-out: IC50 DU-145, 96 h exposure, prostate cancer cell line
Description: as §1

[3] = test system: PC-3 human prostate cancer cells; assay: SRB cytotoxicity assay, PC-3; conditions: 96 h exposure, prostate cancer cell line
Description: as §1

[4] = test system: LNCaP human prostate cancer cells; assay: SRB cytotoxicity assay, LNCaP; conditions: 96 h exposure, prostate cancer cell line
Description: as §1

[5] = test system: PPC-1 human prostate cancer cells; assay: SRB cytotoxicity assay, PPC-1; conditions: 96 h exposure, prostate cancer cell line
Description: (§2) Dr. Mitchell Steiner at University of Tennessee Health Science Center, kindly provided PPC-1 and TSU-Pr1 cells.
as §1

[6] = test system: TSU-Pr1 human prostate cancer cells; assay: SRB cytotoxicity assay, TSU-Pr1; conditions: 96 h exposure, prostate cancer cell line
Description: as §2, §1

[7] = test system: human breast cancer cell line (MCF-7); assay: SRB cytotoxicity assay, MCF-7; conditions: SRB assay
Description: as §1
In vitro cytotoxicity assay was performed by the same sulforhodamine B (SRB) assay (described above). The compounds shown in Table 8 below where tested for activity against the breast cancer and ovarian cancer cell lines.
RH7777 and CV-1 cells were used as negative controls and MCF-7 cell line (breast cancer) was included to examine the selectivity.

CV-1 cells = assay: SRB cytotoxicity assay, CV-1 control cell line
Description: For in vitro cytotoxicity screening, 1000 to 5000 cells were plated into each well of 96-well plates depending on growth rate, and exposed to different concentrations of a test compound for 96 h in three to five replicates. All the compounds were dissolved in dimethyl sulfoxide at 5 to 20 mM, and diluted to desired concentrations in complete culture medium. Cell numbers at the end of the drug treatment were measured by the SRB assay (Gududuru et al., “Synthesis and Biological Evaluation of Novel Cytotoxic Phospholipids for Prostate Cancer,” Bioorg. Med. Chem. Lett. 14:4919-4923 (2004); Rubinstein et al., “Comparison of in vitro Anticancer-Drug-Screening Data Generated with a Tetrazolium Assay Versus a Protein Assay Against a Diverse Panel of Human Tumor Cell Lines,” J. Natl. Cancer Inst. 82:1113-1118 (1990), each of which is hereby incorporated by reference in its entirety). Briefly, the cells were fixed with 10% of trichloroacetic acid, stained with 0.4% SRB, and the absorbances at 540 nm was measured using a plate reader (DYNEX Technologies, Chantilly, Va.). […] A sandwich ELISA (Roche, Mannheim, Germany) utilizing monoclonal antibodies specific for DNA and histones was used to quantify degree of apoptosis induced by the analogs after 72 h exposure. This assay measures DNA-histone complexes (mono- and oligonucleosomes) released into cytoplasm from the nucleus during apoptosis. RH7777 cells were employed because of nonspecific cytotoxicity of compound 4 in receptor-negative cells as well as receptor-positive prostate cancer cells.
RH7777 and CV-1 cells were used as negative controls and MCF-7 cell line (breast cancer) was included to examine the selectivity. 5-Fluorouracil was used as reference drug.

[8] = test system: five human prostate cancer cell lines (DU-145, PC-3, LNCaP, PPC-1, and TSU-Pr1); assay: SRB assay, statements on the panel of prostate cancer cell lines
Description: Cell numbers at the end of the drug treatment were measured by the SRB assay (Gududuru et al., “Synthesis and Biological Evaluation of Novel Cytotoxic Phospholipids for Prostate Cancer,” Bioorg. Med. Chem. Lett. 14:4919-4923 (2004); Rubinstein et al., “Comparison of in vitro Anticancer-Drug-Screening Data Generated with a Tetrazolium Assay Versus a Protein Assay Against a Diverse Panel of Human Tumor Cell Lines,” J. Natl. Cancer Inst. 82:1113-1118 (1990), each of which is hereby incorporated by reference in its entirety). Briefly, the cells were fixed with 10% of trichloroacetic acid, stained with 0.4% SRB, and the absorbances at 540 nm was measured using a plate reader (DYNEX Technologies, Chantilly, Va.). […] A sandwich ELISA (Roche, Mannheim, Germany) utilizing monoclonal antibodies specific for DNA and histones was used to quantify degree of apoptosis induced by the analogs after 72 h exposure. This assay measures DNA-histone complexes (mono- and oligonucleosomes) released into cytoplasm from the nucleus during apoptosis. […] EDG-ology of Liver Injury,” Biochimica et Biophysica ACT 1582:251-256 (2002), which is hereby incorporated by reference in its entirety) was also utilized to understand whether the antiproliferative activity of these derivatives is mediated through inhibition of LPL receptors.

SKMEL-188 melanoma cells = assay: Sulforhodamine B assay in melanoma cells, SKMEL-188; conditions: SK-MEL-188, 48 h, SRB assay, 48 h incubation; melanoma cell line
Description: (§3) SKMEL-188 cells were cultured in Ham's F10 medium (Gibco Invitrogen, Inc., Grand Island, N.Y.) plus 5% fetal bovine serum (Cellgro Mediatech, Inc., Herndon, Va.) and 1% antibiotic/antimycotic mixture (Sigma-Aldrich, Inc., St. Louis, Mo.). WM-164 cells (gift of Dr. Meenhard Herlyn, Wistar Inst., Philadelphia, Pa.) and human dermal fibroblasts (Cascade Biologics, Inc., Portland, Oreg.) were cultured in DMEM medium (Cellgro Mediatech, Inc.) supplemented with 5% fetal bovine serum, 1% antibiotic.antimycotic mixture and bovine insulin ([…], Sigma-Aldrich, Inc.). Human dermal fibroblasts were used as a control to examine the effects of compounds on stromal environment. Thus, the effect of the various compounds on melanoma cells versus fibroblasts would document their potential selectivity.
(§4) Sulforhodamine B Assay: Cells were seeded into 96-well plates at 5000 cells/well. After 12 hours, media were changed and serial dilutions of compounds were added. Cells were incubated with each compound for 48 hours. Fresh media containing the test compound were changed ever 24 hours. Thereafter, total cell protein corresponding to cell numbers (both viable and non-viable cells) were measured using the sulforhodamine B (SRB) assay according to manufacturer's protocol (Sigma-Aldrich, Inc.) (Rubinstein et al., “Comparison of in vitro Anticancer Drug-screening Data Generated with a Tetrazolium Assay Versus a Protein Assay Against a Diverse Panel of Human Tumor Cell Lines,” J. Natl. Cancer Inst. 82:1113-1118 (1990); Dothager et al., “Synthesis and Identification of Small Molecules that Potently Induce Apoptosis in Melanoma Cells Through GI Cell Cycle Arrest,” J. Am. Chem. Soc. 127:8686-8696 (2005), each of which is hereby incorporated by reference in its entirety). Briefly, cells were fixed with trichloracetic acid, washed and incubated with sulforhodamine B for 30 minutes. After another wash, dye incorporated into the cells was solubilized and measured using a plate reader at 565 nm.
(§5) Statistical Analysis: Data is presented as mean±SEM (n=6-8). […] Statistical analyses were performed with Student's t-test (*p<0.05; **p<0.005).
(§6) DTIC and Taxol were assayed in the same way for comparison and served as internal quality controls in the different batches of assay. For comparison, the activities of 5R and 5S were measured.

WM-164 cells = assay: Sulforhodamine B assay in melanoma cells, WM-164; conditions: Homo sapiens, WM164, read-out: IC50 WM-164; SRB assay, 48 h incubation; melanoma cell line
Description: as §3, §4, §5, §6

[9] = test system: SKMEL-188 and WM-164 cell lines; assay: SRB assay, statements on both melanoma cell lines
Description: Louis, Mo.). WM-164 cells (gift of Dr. Meenhard Herlyn, Wistar Inst., Philadelphia, Pa.) and human dermal fibroblasts (Cascade Biologics, Inc., Portland, Oreg.) were cultured in DMEM medium (Cellgro Mediatech, Inc.) supplemented with 5% fetal bovine serum, 1% antibiotic.antimycotic mixture and bovine insulin ([…], Sigma-Aldrich, Inc.). Human dermal fibroblasts were used as a control to examine the effects of compounds on stromal environment. Thus, the effect of the various compounds on melanoma cells versus fibroblasts would document their potential selectivity. Sulforhodamine B Assay: Cells were seeded into 96-well plates at 5000 cells/well. After 12 hours, media were changed and serial dilutions of compounds were added. Cells were incubated with each compound for 48 hours. Fresh media containing the test compound were changed ever 24 hours. Thereafter, total cell protein corresponding to cell numbers (both viable and non-viable cells) were measured using the sulforhodamine B (SRB) assay according to manufacturer's protocol (Sigma-Aldrich, Inc.) (Rubinstein et al., “Comparison of in vitro Anticancer Drug-screening Data Generated with a Tetrazolium Assay Versus a Protein Assay Against a Diverse Panel of Human Tumor Cell Lines,” J. Natl. Cancer Inst. 82:1113-1118 (1990); Dothager et al., “Synthesis and Identification of Small Molecules that Potently Induce Apoptosis in Melanoma Cells Through GI Cell Cycle Arrest,” J. Am. Chem. Soc. 127:8686-8696 (2005), each of which is hereby incorporated by reference in its entirety). Briefly, cells were fixed with trichloracetic acid, washed and incubated with sulforhodamine B for 30 minutes. After another wash, dye incorporated into the cells was solubilized and measured using a plate reader at 565 nm. Statistical Analysis: Data is presented as mean±SEM (n=6-8). […] Statistical analyses were performed with Student's t-test (*p<0.05; **p<0.005). […] DTIC and Taxol were assayed in the same way for comparison and served as internal quality controls in the different batches of assay. For comparison, the activities of 5R and 5S were measured.

human dermal fibroblasts = assay: Sulforhodamine B assay, fibroblast control cells; conditions: Homo sapiens, Fibroblast, 48 h, SRB assay, 48 h incubation
Description: as §3, §4, §5, §6

Row | IC50 [8] | IC50 (SKMEL-188 melanoma cells) | IC50 (WM-164 cells) | IC50 ([9]; 48 h, read-out: IC50 against both melanoma cell lines) | SMILES | IC50 [1] | IC50 [2] | IC50 [3] | IC50 [4] | IC50 [5] | IC50 [6] | IC50 [7] | IC50 (CV-1 cells) | IC50 (human dermal fibroblasts) | Killing of melanoma cells (cytostatic versus cytotoxic) ([9]; higher concentrations)
1 | – | > 100 µM | > 100 µM | > 100 µM | CN(C)/N=N/c1[nH]cnc1C(N)=O [DTIC, dacarbazine, reference compound] | – | – | – | – | – | – | – | – | – | –
2 | – | 3.8 µM | 6.1 µM | – | CC(=O)O[C@H]1C(=O)[C@@]2(C)[C@H]([C@H](OC(=O)c3ccccc3)[C@]3(O)C[C@H](OC(=O)[C@H](O)[C@@H](NC(=O)c4ccccc4)c4ccccc4)C(C)=C1C3(C)C)[C@]1(OC(C)=O)CO[C@@H]1C[C@@H]2O [Taxol, reference compound] | – | – | – | – | – | – | – | – | > 10 µM | not effective in killing the cells
3 | > 100 µM | – | – | – | COc1cc(C2NC(C(=O)NCCCNCCCCN)CS2)cc(OC)c1OC (mixture of isomers) [Compound 223] | > 100 µM | > 100 µM | > 100 µM | > 100 µM | > 100 µM | > 100 µM | > 100 µM | > 100 µM | – | –

Further lines, the molecule ahead of its results:

Row | SMILES | IC50 [8] | IC50 (SKMEL-188 melanoma cells) | IC50 (WM-164 cells) | IC50 ([9]; 48 h, read-out: IC50 against both melanoma cell lines) | IC50 [1] | IC50 [2] | IC50 [3] | IC50 [4] | IC50 [5] | IC50 [6] | IC50 [7] | IC50 (CV-1 cells) | IC50 (human dermal fibroblasts) | Killing of melanoma cells (cytostatic versus cytotoxic) ([9]; higher concentrations)
4 | NCCCCNCCCNC(=O)CN1C(=O)CSC1c1ccccc1 (stereo not shown) [Compound 219] | > 100 µM | – | – | – | > 100 µM | > 100 µM | > 100 µM | > 100 µM | > 100 µM | > 100 µM | > 100 µM | > 100 µM | – | –
5 | NCCCCNC(=O)CN1C(=O)CSC1c1ccccc1 (stereo not shown) [Compound 218] | > 100 µM | – | – | – | > 100 µM | > 100 µM | > 100 µM | > 100 µM | > 100 µM | > 100 µM | > 100 µM | > 100 µM | – | –
6 | COc1cc(C2NC(C(=O)NCCCCN)CS2)cc(OC)c1OC (mixture of isomers) [Compound 222] | > 100 µM | – | – | – | > 100 µM | > 100 µM | > 100 µM | > 100 µM | > 100 µM | > 100 µM | > 100 µM | > 100 µM | – | –
7 | NCCCCNC(=O)C(N)CO (stereo not shown) [Compound 214] | > 100 µM | – | – | – | > 100 µM | > 100 µM | > 100 µM | > 100 µM | > 100 µM | > 100 µM | > 100 µM | > 100 µM | – | –
8 | NCCCCNCCCNC(=O)C(N)CO (stereo not shown) [Compound 215] | > 100 µM | – | – | – | > 100 µM | > 100 µM | > 100 µM | > 100 µM | > 100 µM | > 100 µM | > 100 µM | > 100 µM | – | –
